“Also recorded” adds a separate entry of the source.
Experiments:
[1] = tested on: JCPyV; set-up: unit not given beside the values; details: cells not given; cited from earlier work
[2] = tested on: JCPyV; test: JCPyV infection, cells not stated (FIG. 1, FIG. 2); format: cell-based, JC polyomavirus
[3] = tested on: JCPyV; test: initial JCPyV infection in SVG-A glial cells, indirect immunofluorescent quantification of viral proteins; format: cell-based, JC polyomavirus; details: pre-treatment
[4] = cytotoxicity in NHA cells; format: cell-based; details: human, read-out: 50% cytotoxic concentration (CC50)
[5] = tested on: PML; test: administration to patients with or at risk of PML (Examples 1-6); format: in vivo
From the text: The patient's difficulty in walking is decreased. […] The patient's facial drooping is decreased. […] The patient's loss of vision is decreased. […] The patient's seizures are decreased. […].

[6] = tested on: ERK1/2; test: endogenous ERK phosphorylation, with or without PMA; format: cell-based
[7] = tested on: JCPyV; test: long-term cell-to-cell spread of JCPyV; format: cell-based, JC polyomavirus; details: introduced after establishment of a productive infection
From the text: SI50 values are important metrics in drug discovery, and an SI50 greater than 10 is commonly considered to be an important starting point in drug development.

[8] = tested on: human and simian polyomaviruses; test: initial infection by human and simian polyomaviruses (FIG. 4); format: cell-based
[9] = cytotoxicity in SVG-A cells; format: cell-based; details: human, read-out: 50% cytotoxic concentration (CC50)
[10] = tested on: JCPyV; test: rescue of JCPyV infection by PMA cotreatment in SVG-A cells; format: cell-based, JC polyomavirus; details: SVG-A cells cotreated with PMA and GW-5074
[11] = tested on: JCPyV; test: initial JCPyV infection in primary normal human astrocytes (NHA), indirect immunofluorescent quantification of viral proteins; format: cell-based, JC polyomavirus; details: pre-treatment
[12] = patient with early signs of PML

## Cc1ccc(C2Nc3ccccc3C(=O)N2c2ccccc2)s1 (stereo not shown) [Retro-2^cycl]
[1]
  SI50 of established compounds with anti-JCPyV activity: 7.4

## CN(C)CCCN1c2ccccc2Sc2ccc(Cl)cc21 [chlorpromazine]
[1]
  SI50 of established compounds with anti-JCPyV activity: 2.0

## O=C1Nc2ccc(I)cc2C1=Cc1cc(Br)c(O)c(Br)c1 [GW-5074, 3-(3,5-dibromo-4-hydroxybenzylidene)-5-iodoindolin-2-one]
[2]; FIG. 1, cells not stated
  initial JCPyV infection: reduction in initial JCPyV infection
[2]; FIG. 2
  protective effect: protective effect
[3]; JC polyomavirus, SVG-A cells, one round of productive infection, read-out: 50% inhibitory concentration (IC50)
  IC50: 6.8 µM
[3]; SVG-A glial cells, non-toxic concentrations
  initial JCPyV infection: potently reduced initial JCPyV infection
[4]
  CC50: > 20 µM
[5]; patient at risk for the development of PML
  development of PML: does not develop PML
[5]; [12]
  difficulty in walking: decreased
  facial drooping: decreased
  loss of vision: decreased
[5]; patient with mid-stage PML
  loss of vision: decreased
  seizures: decreased
[6]
  endogenous ERK phosphorylation: inhibits endogenous ERK1/2 phosphorylation; also recorded: inhibited endogenous ERK phosphorylation
[6]; coincubation with PKC agonist PMA
  restoration of ERK activity: ERK activity could not be restored
[7]
  long-term cell-to-cell spread of JCPyV: inhibition of viral spread; also recorded: inhibited long-term cell-to-cell spread of JCPyV
[8]
  initial infection by human and simian polyomaviruses: reduction of initial infection
[9]
  CC50: > 100 µM
[10]
  rescue of JCPyV infection: JCPyV infection could not be rescued
[11]; JC polyomavirus, Astrocyte, NHA cells, one round of productive infection, read-out: 50% inhibitory concentration (IC50)
  IC50: 840 nM
[11]; primary normal human astrocytes, non-toxic concentrations
  initial JCPyV infection: reduction of initial infection; also recorded: potently reduced initial JCPyV infection

## OC(c1cc(C(F)(F)F)nc2c(C(F)(F)F)cccc12)C1CCCCN1 (stereo not shown) [mefloquine]
[1]
  SI50 of established compounds with anti-JCPyV activity: 4.0
